Measured values taken from patent US20260001928A1 (CORTERIA PHARMACEUTICALS, priority 2022, published 2026).
*1 amine or outer side, *2 acyl side, *3 side chain or, on linkers, in order; H or OH if unused. Where a SMILES comes first, the peptide text is derived from it. Side-chain parts run from the residue outwards. [ ]: non-standard residue; d: D form. The star is where a group is joined. C18 diacid = O=C(O)CCCCCCCCCCCCCCCCC(=O)*; γGlu = O=C(O)[C@H](CCC(=O)[*:2])N[*:1]; C14 diacid = O=C(O)CCCCCCCCCCCCC(=O)*; NMeI = CC[C@H](C)[C@H](NC)C(=O)O; Api = NC1(C(=O)O)CCNCC1; Abu = CC[C@H](N)C(=O)O; AEEA = NCCOCCOCC(=O)O; Butyryl = CCCC(=O)*

Key:
human CRF2a receptor = molecular target: T1, human CRF2a receptor (Homo sapiens, UniProt Q13324); test: Activity at human CRF2a receptor, cAMP functional assay in TeloHEAC cells; type: cell-based; details: TeloHEAC cells stably expressing human CRF2a receptor, relative to urocortin 2 (100 nM = 100%)
T1 construct: expressed in transfected cells; host or cells: TeloHEAC cells
T1 sequence (Q13324 1-411): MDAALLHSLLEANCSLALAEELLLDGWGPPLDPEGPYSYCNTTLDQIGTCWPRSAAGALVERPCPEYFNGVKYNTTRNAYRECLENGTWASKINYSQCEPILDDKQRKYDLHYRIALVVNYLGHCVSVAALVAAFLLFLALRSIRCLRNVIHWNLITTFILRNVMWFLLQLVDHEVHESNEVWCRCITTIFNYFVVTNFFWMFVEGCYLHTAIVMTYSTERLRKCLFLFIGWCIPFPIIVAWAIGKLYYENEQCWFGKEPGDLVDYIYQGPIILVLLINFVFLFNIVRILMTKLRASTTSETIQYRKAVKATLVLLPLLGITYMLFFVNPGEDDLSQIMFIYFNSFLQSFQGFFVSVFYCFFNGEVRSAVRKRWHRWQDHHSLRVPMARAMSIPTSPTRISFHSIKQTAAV
Method in brief: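 TeloHEAC cells stably expressing human CRF2a (10000 cells/well) were treated with 16-point 1:2 compound dilutions in HBSS/20 mM HEPES with IBMX for 30 min at 37° C. cAMP was read by HTRF (665/620 nm ratio). EC50 was the concentration giving 50% activation, with 100 nM urocortin 2 set as 100%.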

CFR1R receptor = molecular target: T2, CFR1R receptor (Homo sapiens, UniProt P34998); test: Activity at anti-target CFR1R receptor, cAMP assay in CRF1R-overexpression CHO-K1 cells; type: cell-based; details: 100% = Sauvagine at 100 nM; for EC50: cAMP
T2 construct: host or cells: CHO-K1 (clone 2)
T2 sequence (P34998 24-415): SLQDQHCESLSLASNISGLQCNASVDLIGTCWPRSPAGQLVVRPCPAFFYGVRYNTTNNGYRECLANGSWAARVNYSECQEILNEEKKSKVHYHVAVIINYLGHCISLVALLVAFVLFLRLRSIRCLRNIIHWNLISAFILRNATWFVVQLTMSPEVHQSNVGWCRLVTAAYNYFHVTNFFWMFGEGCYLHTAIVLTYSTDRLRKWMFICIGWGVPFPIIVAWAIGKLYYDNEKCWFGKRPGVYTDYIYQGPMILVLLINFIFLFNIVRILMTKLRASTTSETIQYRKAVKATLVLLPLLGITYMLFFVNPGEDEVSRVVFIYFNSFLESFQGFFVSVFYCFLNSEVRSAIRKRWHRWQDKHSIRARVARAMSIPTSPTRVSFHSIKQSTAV
Method in brief: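 Signal is normalised to 100 nM Sauvagine, taken as 100% activation, in clone 2 cells plated at a final 4000 cells/well from frozen stocks.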

Compound	EC50 (human CRF2a receptor)	Emax (% I) (CFR1R receptor)	EC50 (CFR1R receptor)
CC[C@H](NC(=O)[C@H](CC(N)=O)NC(=O)[C@@H](NC(=O)[C@H](CCC(=O)O)NC(=O)[C@H](C)NC(=O)[C@H](CCC(N)=O)NC(=O)[C@H](CCC(=O)O)NC(=O)[C@H](CCCNC(=N)N)NC(=O)[C@H](CCC(N)=O)NC(=O)[C@H](CCCCN)NC(=O)[C@H](CCCCN)NC(=O)[C@H](CCC(N)=O)NC(=O)[C@H](CCCCN)NC(=O)[C@H](CCC(=O)O)NC(=O)[C@H](CCC(N)=O)NC(=O)[C@H](CCC(=O)O)NC(=O)[C@H](CC(C)C)NC(=O)[C@H](CC(C)C)NC(=O)[C@@H](NC(=O)[C@H](CCCCN)NC(=O)[C@H](CCCCNC(=O)COCCOCCNC(=O)COCCOCCNC(=O)CC[C@H](NC(=O)CCCCCCCCCCCCCCCCC(=O)O)C(=O)O)NC(=O)[C@H](CC(C)C)NC(=O)[C@H](CCCCN)NC(=O)[C@@H](NC(=O)[C@@H]1CCCN1C(=O)[C@H](NC(=O)[C@H](CC(=O)O)NC(=O)[C@H](CC(C)C)NC(=O)[C@H](CO)NC(=O)[C@H](CC(C)C)NC(=O)[C@@H](NC(=O)[C@@H](NC)[C@@H](C)CC)C(C)C)C(C)C)[C@@H](C)CC)[C@@H](C)CC)[C@@H](C)O)C(=O)N[C@@H](CCC(N)=O)C(=O)N[C@H](C(=O)N[C@@H](CC(C)C)C(=O)N[C@@H](C)C(=O)N[C@@H](CCC(N)=O)C(=O)N[C@H](C(N)=O)C(C)C)[C@@H](C)CC [compound 114] (H-[NMeI]VLSLD[dV]PIKLK([AEEA-AEEA-γGlu-C18 diacid])KILLEQEKQKKQREQAETN[Abu]QILAQV-NH2)	0.18 nM	6 % I	> 250 nM
CC[C@H](C)[C@H](NC(C)=O)C(=O)N[C@H](C(=O)N[C@@H](CC(C)C)C(=O)N[C@@H](CO)C(=O)N[C@@H](CC(C)C)C(=O)N[C@@H](CC(=O)O)C(=O)N[C@@H](C(=O)N1CCC[C@H]1C(=O)N[C@H](C(=O)N[C@@H](CCCCN)C(=O)N[C@@H](CC(C)C)C(=O)N[C@@H](CCCCNC(=O)CC[C@H](NC(=O)CCCCCCCCCCCCCCCCC(=O)O)C(=O)O)C(=O)N[C@@H](CCCCN)C(=O)N[C@H](C(=O)N[C@@H](CC(C)C)C(=O)N[C@@H](CC(C)C)C(=O)N[C@@H](CCC(=O)O)C(=O)N[C@@H](CCC(N)=O)C(=O)N[C@@H](CCC(=O)O)C(=O)N[C@@H](CCCCN)C(=O)N[C@@H](CCC(N)=O)C(=O)N[C@@H](CCCCN)C(=O)N[C@@H](CCCCN)C(=O)N[C@@H](CCC(N)=O)C(=O)N[C@@H](CCCNC(=N)N)C(=O)N[C@@H](CCC(=O)O)C(=O)N[C@@H](CCC(N)=O)C(=O)N[C@@H](C)C(=O)N[C@@H](CCC(=O)O)C(=O)N[C@H](C(=O)N[C@@H](CC(N)=O)C(=O)NC1(C(=O)N[C@@H](CCC(N)=O)C(=O)N[C@H](C(=O)N[C@@H](CC(C)C)C(=O)N[C@@H](C)C(=O)N[C@@H](CCC(N)=O)C(=O)N[C@H](C(N)=O)C(C)C)[C@@H](C)CC)CCNCC1)[C@@H](C)O)[C@@H](C)CC)[C@@H](C)CC)C(C)C)C(C)C [compound 129] (Ac-IVLSLD[dV]PIKLK([γGlu-C18 diacid])KILLEQEKQKKQREQAETN[Api]QILAQV-NH2)	0.14 nM	39 % I	–
CCCC(=O)N[C@H](C(=O)N[C@@H](CC(C)C)C(=O)N[C@@H](CO)C(=O)N[C@@H](CC(C)C)C(=O)N[C@@H](CC(=O)O)C(=O)N[C@H](C(=O)N1CCC[C@H]1C(=O)N[C@H](C(=O)N[C@@H](CCCCN)C(=O)N[C@@H](CC(C)C)C(=O)N[C@@H](CCCCNC(=O)COCCOCCNC(=O)COCCOCCNC(=O)CC[C@H](NC(=O)CCCCCCCCCCCCCCCCC(=O)O)C(=O)O)C(=O)N[C@@H](CCCCN)C(=O)N[C@H](C(=O)N[C@@H](CC(C)C)C(=O)N[C@@H](CC(C)C)C(=O)N[C@@H](CCC(=O)O)C(=O)N[C@@H](CCC(N)=O)C(=O)N[C@@H](CCC(=O)O)C(=O)N[C@@H](CCCCN)C(=O)N[C@@H](CCC(N)=O)C(=O)N[C@@H](CCCCN)C(=O)N[C@@H](CCCCN)C(=O)N[C@@H](CCC(N)=O)C(=O)N[C@@H](CCCNC(=N)N)C(=O)N[C@@H](CCC(=O)O)C(=O)N[C@@H](CCC(N)=O)C(=O)N[C@@H](C)C(=O)N[C@@H](CCC(=O)O)C(=O)N[C@H](C(=O)N[C@@H](CC(N)=O)C(=O)N[C@@H](CCCCN)C(=O)N[C@@H](CCC(N)=O)C(=O)N[C@H](C(=O)N[C@@H](CC(C)C)C(=O)N[C@@H](C)C(=O)N[C@@H](CCC(N)=O)C(=O)N[C@H](C(N)=O)C(C)C)[C@@H](C)CC)[C@@H](C)O)[C@@H](C)CC)[C@@H](C)CC)C(C)C)C(C)C [compound 95] (Butyryl-VLSLDVPIKLK([AEEA-AEEA-γGlu-C18 diacid])KILLEQEKQKKQREQAETNKQILAQV-NH2)	0.76 nM	5 % I	> 250 nM
CC[C@H](C)[C@H](NC)C(=O)N[C@H](C(=O)N[C@@H](CC(C)C)C(=O)N[C@@H](CO)C(=O)N[C@@H](CC(C)C)C(=O)N[C@@H](CC(=O)O)C(=O)N[C@@H](C(=O)N1CCC[C@H]1C(=O)N[C@H](C(=O)N[C@@H](CCCCN)C(=O)N[C@@H](CC(C)C)C(=O)N[C@@H](CCCCNC(=O)CC[C@H](NC(=O)CCCCCCCCCCCCCCCCC(=O)O)C(=O)O)C(=O)N[C@@H](CCCCN)C(=O)N[C@H](C(=O)N[C@@H](CC(C)C)C(=O)N[C@@H](CC(C)C)C(=O)N[C@@H](CCC(=O)O)C(=O)N[C@@H](CCC(N)=O)C(=O)N[C@@H](CCC(=O)O)C(=O)N[C@@H](CCCCN)C(=O)N[C@@H](CCC(N)=O)C(=O)N[C@@H](CCCCN)C(=O)N[C@@H](CCCCN)C(=O)N[C@@H](CCC(N)=O)C(=O)N[C@@H](CCCNC(=N)N)C(=O)N[C@@H](CCC(=O)O)C(=O)N[C@@H](CCC(N)=O)C(=O)N[C@@H](C)C(=O)N[C@@H](CCC(=O)O)C(=O)N[C@H](C(=O)N[C@@H](CC(N)=O)C(=O)NC1(C(=O)N[C@@H](CCC(N)=O)C(=O)N[C@H](C(=O)N[C@@H](CC(C)C)C(=O)N[C@@H](C)C(=O)N[C@@H](CCC(N)=O)C(=O)N[C@H](C(N)=O)C(C)C)[C@@H](C)CC)CCNCC1)[C@@H](C)O)[C@@H](C)CC)[C@@H](C)CC)C(C)C)C(C)C [compound 141] (H-[NMeI]VLSLD[dV]PIKLK([γGlu-C18 diacid])KILLEQEKQKKQREQAETN[Api]QILAQV-NH2)	0.16 nM	32 % I	> 250 nM
CC[C@H](C)[C@H](NC(C)=O)C(=O)N[C@H](C(=O)N[C@@H](CC(C)C)C(=O)N[C@@H](CO)C(=O)N[C@@H](CC(C)C)C(=O)N[C@@H](CC(=O)O)C(=O)N[C@@H](C(=O)N1CCC[C@H]1C(=O)N[C@H](C(=O)N[C@@H](CCCCN)C(=O)N[C@@H](CC(C)C)C(=O)N[C@@H](CCCCNC(=O)COCCOCCNC(=O)COCCOCCNC(=O)CC[C@H](NC(=O)CCCCCCCCCCCCC(=O)O)C(=O)O)C(=O)N[C@@H](CCCCN)C(=O)N[C@H](C(=O)N[C@@H](CC(C)C)C(=O)N[C@@H](CC(C)C)C(=O)N[C@@H](CCC(=O)O)C(=O)N[C@@H](CCC(N)=O)C(=O)N[C@@H](CCC(=O)O)C(=O)N[C@@H](CCCCN)C(=O)N[C@@H](CCC(N)=O)C(=O)N[C@@H](CCCCN)C(=O)N[C@@H](CCCCN)C(=O)N[C@@H](CCC(N)=O)C(=O)N[C@@H](CCCNC(=N)N)C(=O)N[C@@H](CCC(=O)O)C(=O)N[C@@H](CCC(N)=O)C(=O)N[C@@H](C)C(=O)N[C@@H](CCC(=O)O)C(=O)N[C@H](C(=O)N[C@@H](CC(N)=O)C(=O)NC1(C(=O)N[C@@H](CCC(N)=O)C(=O)N[C@H](C(=O)N[C@@H](CC(C)C)C(=O)N[C@@H](C)C(=O)N[C@@H](CCC(N)=O)C(=O)N[C@H](C(N)=O)C(C)C)[C@@H](C)CC)CCNCC1)[C@@H](C)O)[C@@H](C)CC)[C@@H](C)CC)C(C)C)C(C)C [compound 172] (Ac-IVLSLD[dV]PIKLK([AEEA-AEEA-γGlu-C14 diacid])KILLEQEKQKKQREQAETN[Api]QILAQV-NH2)	16.1 nM	−6 % I	> 250 nM
